{"source": "patent US20120165403A1", "about": "“METHODS OF INHIBITING THE ACTIVITY OF HSP90 AND/OR ARYL HYDROCARBON RECEPTOR” (UNIVERSITY OF ROCHESTER, priority 2004, published 2012)", "key": {"[1]": {"system": "TCDD-mediated CYP1A1 gene induction", "experiment": "CYP1A1 gene induction in HepG2 cells", "format": "cell-based, human"}, "[2]": {"system": "AhR", "experiment": "Immunocytochemistry of AhR subcellular localization in Hepa cells", "format": "cell-based, mouse", "conditions": "1 h", "protocol": "Hepa cells were plated onto four-well chamber slides (Becton Dickinson, Bedford, Mass.) at a density of 2.0×10^4 and incubated overnight. Cells were treated with either vehicle (DMSO), TCDD (150 pM), EGCG alone (200 μM), or EGCG in the presence of TCDD (150 pM) for 1 h. Cells were fixed with 3.7% formalin at room temperature for 10 minutes, followed by a four minute incubation in anhydrous methanol at 4° C. All antibodies were filtered through a 0.45 micron filter before staining Cells were blocked for one hour in phosphate buffered saline containing 4% BSA, incubated with anti-AhR at a 1:2000 dilution for two hours at room temperature, followed by a one hour incubation with 1:1000 anti-rabbit Alexa-Fluor conjugated secondary antibody (Molecular Probes, Eugene Oreg.). Nuclei were stained with DAPI (0.5 μg/ml) (Molecular Probes) for three minutes at room temperature. Slides were mounted with 50% glycerol and coverslipped. AhR staining and nuclear staining were visualized using a Nikon Eclipse TS110 fluorescent microscope (40× magnification). Fluorescent images were captured using SPOT advanced software."}, "[3]": {"biological_target": "T1, p23 (Homo sapiens, UniProt Q15185)", "T1 construct": "made in house; host or cells: coupled transcription/translation in rabbit reticulocyte lysate (TNT, Promega), 35S-labelled", "T1 sequence (Q15185 1-160)": "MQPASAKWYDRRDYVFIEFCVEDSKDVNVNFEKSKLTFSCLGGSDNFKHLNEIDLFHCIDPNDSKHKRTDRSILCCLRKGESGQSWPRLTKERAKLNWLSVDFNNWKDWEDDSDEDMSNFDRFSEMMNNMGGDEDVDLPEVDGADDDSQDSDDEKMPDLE", "experiment": "Affinity chromatography on EGCG-conjugated Sepharose, in vitro translated p23", "format": "binding", "conditions": "35S-p23 in vitro translated in RRL", "from_the_text": "Murine AhR and ARNT cDNA (obtained from J. Whitlock and O. Hankinson, respectively) were inserted into pcDNA3 (Invitrogen, Carlsbad, Calif.). Chicken hsp90 constructs (FIG. 5), c90711hsp (wild-type), c90G94D (wild-type point mutant gly94→Asp (Grenert et al., J. Biol. Chem. 272:23843-23850 (1997), which is hereby incorporated by reference in its entirety), c90D92A (wild-type point mutant Asp92→Ala (Sullivan et al., J. Biol. Chem. 268:20373-20379 (1993), which is hereby incorporated by reference in its entirety), c90N221 (wild-type truncation mutant encoding a.a. 221-728 (Sullivan et al., J. Biol. Chem. 268:20373-20379 (1993), which is hereby incorporated by reference in its entirety)), c90N303 (a.a. 303-728) and c90N538 (a.a. 538-728) were kind gifts from Dr. D. Toft (Rochester, Minn.). The C-terminal truncation mutant c900507 (a.a. 1-221) was obtained from Dr. L. Neckers (Rockville, Md.) (Grenert et al., J. Biol. Chem. 272:23843-23850 (1997); Marcu et al., J. Biol. Chem. 275:37181-37186 (2000), which are hereby incorporated by reference in their entirety). Human p23 cDNA was excised from pQE80-p23 (obtained from W. Chan Stockton, Calif.) by sequential digests using the restriction enzymes Sad (3′-end) and BamHI (5′-end) and inserted into the similarly digested pET28a (Novagen, Madison, Wis.). […]"}}}
{"compound": "O=C(O[C@@H]1Cc2c(O)cc(O)cc2O[C@@H]1c1cc(O)c(O)c(O)c1)c1cc(O)c(O)c(O)c1", "note": "[EGCG, epigallocatechin gallate]", "values": [{"measurement": "inhibition of TCDD-mediated CYP1A1 gene induction", "setting": "[1]", "result": "inhibited TCDD-mediated CYP1A1 gene induction"}, {"measurement": "effect on TCDD induced nuclear localization of the AhR", "setting": "[2]; 200 μM EGCG with 150 pM TCDD", "result": "did not attenuate this TCDD induced nuclear localization"}, {"measurement": "subcellular localization of the AhR, treatment alone", "setting": "[2]; EGCG 200 μM or TCDD 150 pM", "result": "remarkable redistribution of the AhR from the cytosol to the nucleus"}, {"measurement": "binding of p23 to immobilized EGCG", "setting": "[3]", "result": "incapable of binding immobilized EGCG"}]}
